21 compounds from US12084472B2 (Ardelyx, Inc., priority 2015, dated 2024) can be followed below.

Structures are written as SMILES.

The target in the test is T1, human TGR5 (Homo sapiens, UniProt Q8TDU6).
T1 construct: expressed in transfected cells; host or cells: HEK293
T1 sequence (Q8TDU6 1-330): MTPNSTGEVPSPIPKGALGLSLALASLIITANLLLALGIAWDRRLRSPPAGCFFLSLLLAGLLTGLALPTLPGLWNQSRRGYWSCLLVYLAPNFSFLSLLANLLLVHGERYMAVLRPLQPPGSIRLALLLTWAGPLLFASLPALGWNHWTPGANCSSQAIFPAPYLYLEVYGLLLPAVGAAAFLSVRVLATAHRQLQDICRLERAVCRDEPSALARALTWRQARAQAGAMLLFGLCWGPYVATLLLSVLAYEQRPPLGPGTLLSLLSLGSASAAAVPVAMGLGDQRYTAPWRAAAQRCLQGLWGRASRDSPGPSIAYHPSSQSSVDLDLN
As to the kind of experiment: Cell-based TGR5 assay (cAMP generation, HTRF). The note with it: HEK293 cells stably transfected with human TGR5; cAMP by HTRF; 30 minutes at 37° C.; read-out: pEC50 Human TGR5 (converted). The gist of the method:
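First, compounds in 3-fold serial dilution were placed in HBSS with 10 mM HEPES pH 7.4 and 0.5 mM IBMX. Next, human TGR5-expressing HEK293 cells were added and incubated 30 min at 37° C. Finally, cAMP was detected by HTRF and pEC50 derived by logistic fitting.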
As to `Cc1cc(CNC2(c3cnccc3-c3ccccc3OC3CC3)CC2)c(C)cc1CCCCC(=O)N(C)C[C@H](O)[C@@H](O)[C@H](O)[C@H](O)CO` [Compound I-149, 5-{4-[({1-[4-(2-cyclopropoxyphenyl)pyridin-3-yl]cyclopropyl}amino)methyl]-2,5-dimethylphenyl}-N-methyl-N-[(2S,3R,4R,5R)-2,3,4,5,6-pentahydroxyhexyl]pentanamide], the EC50 is 126 to 1000 nM.

`CC(OCCc1cc(Cl)c(COC2(c3cnccc3-c3ccccc3OC3CC3)CC2)cc1Cl)C(=O)NC[C@H](O)[C@@H](O)[C@H](O)[C@H](O)CO` (stereo partly drawn) [Compound I-152, 2-{2-[2,5-dichloro-4-({1-[4-(2-cyclopropoxyphenyl)pyridin-3-yl]cyclopropoxy}methyl)phenyl]ethoxy}-N-[(2S,3R,4R,5R)-2,3,4,5,6-pentahydroxyhexyl]propanamide]: the EC50 was 126 to 1000 nM.

Take `O=C(CCCCc1cc(Cl)c(COC2(c3cnccc3-c3ccccc3OC3CC3)CC2)cc1Cl)N[C@@H](C(=O)O)[C@@H](O)[C@H](O)[C@H](O)CO` [Compound I-153]: the EC50 is below 100 nM.

For the compound `O=C(CCCCc1cc(Cl)c(COC2(c3cnccc3-c3ccccc3OC3CC3)CC2)cc1Cl)N[C@@H]1[C@@H](O)[C@H](O)[C@@H](CO)O[C@H]1O` [Compound I-154, 5-[2,5-dichloro-4-({1-[4-(2-cyclopropoxyphenyl)pyridin-3-yl]cyclopropoxy}methyl)phenyl]-N-[(2R,3R,4R,5S,6R)-2,4,5-trihydroxy-6-(hydroxymethyl)oxan-3-yl]pentanamide], the EC50 is below 100 nM.

As for `CC(OCCc1cc(Cl)c(COC2(c3cnccc3-c3ccccc3OC3CC3)CC2)cc1Cl)C(=O)N(C)C[C@H](O)[C@@H](O)[C@H](O)[C@H](O)CO` (stereo partly drawn) [Compound I-155, 2-{2-[2,5-dichloro-4-({1-[4-(2-cyclopropoxyphenyl)pyridin-3-yl]cyclopropoxy}methyl)phenyl]ethoxy}-N-methyl-N-[(2S,3R,4R,5R)-2,3,4,5,6-pentahydroxyhexyl]propanamide], the EC50 is below 100 nM.

With `O=C(CCCCc1cc(Cl)c(COC2(c3cnccc3-c3ccccc3OC3CC3)CC2)cc1Cl)N[C@@H](CO)[C@@H](O)[C@H](O)[C@H](O)CO` [Compound I-156, 5-[2,5-dichloro-4-({1-[4-(2-cyclopropoxyphenyl)pyridin-3-yl]cyclopropoxy}methyl)phenyl]-N-[(2S,3R,4S,5R)-1,3,4,5,6-pentahydroxyhexan-2-yl]pentanamide], the EC50 was below 100 nM.

As for `O=C(O)CCCCc1cc(Cl)c(COC2(c3cnccc3-c3ccccc3OC3CC3)CC2)cc1Cl` [Compound I-157, 5-[2,5-dichloro-4-({1-[4-(2-cyclopropoxyphenyl)pyridin-3-yl]cyclopropoxy}methyl)phenyl]pentanoic acid], the EC50 was below 100 nM.

For the compound `CC(CCCC(=O)NC[C@H](O)[C@@H](O)[C@H](O)[C@H](O)CO)c1cc(Cl)c(COC2(c3cnccc3-c3ccccc3OC3CC3)CC2)cc1Cl` (stereo partly drawn) [Compound I-161, 5-[2,5-dichloro-4-({1-[4-(2-cyclopropoxyphenyl)pyridin-3-yl]cyclopropoxy}methyl)phenyl]-N-[(2S,3R,4R,5R)-2,3,4,5,6-pentahydroxyhexyl]hexanamide], the EC50 was below 100 nM.

With `CC(CCCC(=O)N(C)C[C@H](O)[C@@H](O)[C@H](O)[C@H](O)CO)c1cc(Cl)c(COC2(c3cnccc3-c3ccccc3OC3CC3)CC2)cc1Cl` (stereo partly drawn) [Compound I-162, 5-[2,5-dichloro-4-({1-[4-(2-cyclopropoxyphenyl)pyridin-3-yl]cyclopropoxy}methyl)phenyl]-N-methyl-N-[(2S,3R,4R,5R)-2,3,4,5,6-pentahydroxyhexyl]hexanamide], the EC50 is below 100 nM.

As for `CN(C)C[C@H](NC(=O)CCCCc1cc(Cl)c(COC2(c3cnccc3-c3ccccc3OC3CC3)CC2)cc1Cl)[C@@H](O)[C@H](O)[C@H](O)CO` [Compound I-165, 5-[2,5-dichloro-4-({1-[4-(2-cyclopropoxyphenyl)pyridin-3-yl]cyclopropoxy}methyl)phenyl]-N-[(2S,3R,4S,5R)-1-(dimethylamino)-3,4,5,6-tetrahydroxyhexan-2-yl]pentanamide], the EC50 is below 100 nM.

In the case of `Cc1cc(COC2(c3cnccc3-c3ccccc3OC3CC3)CC2)c(Cl)cc1CCCCN` [Compound I-166, 4-[5-chloro-4-({1-[4-(2-cyclopropoxyphenyl)pyridin-3-yl]cyclopropoxy}methyl)-2-methylphenyl]butan-1-amine], the EC50 was below 100 nM.

Regarding `Cc1cc(COC2(c3cnccc3-c3ccccc3OC3CC3)CC2)c(Cl)cc1CCCCNC(=O)N(C)C[C@H](O)[C@@H](O)[C@H](O)[C@H](O)CO` [Compound I-167, 1-{4-[5-chloro-4-({1-[4-(2-cyclopropoxyphenyl)pyridin-3-yl]cyclopropoxy}methyl)-2-methylphenyl]butyl}-3-methyl-3-[(2S,3R,4R,5R)-2,3,4,5,6-pentahydroxyhexyl]urea], the EC50 is below 100 nM.

For the compound `CN(C[C@H](O)[C@@H](O)[C@H](O)[C@H](O)CO)C(=O)CCN(CCC(=O)N(C)C[C@H](O)[C@@H](O)[C@H](O)[C@H](O)CO)C(=O)CCCCc1cc(Cl)c(COC2(c3cnccc3-c3ccccc3OC3CC3)CC2)cc1Cl` [Compound I-169, 5-[2,5-dichloro-4-({1-[4-(2-cyclopropoxyphenyl)pyridin-3-yl]cyclopropoxy}methyl)phenyl]-N,N-bis(2-{methyl[(2S,3R,4R,5R)-2,3,4,5,6-pentahydroxyhexyl]carbamoyl}ethyl)pentanamide], the EC50 was 126 to 1000 nM.

In the case of `CN(C[C@H](O)[C@@H](O)[C@H](O)[C@H](O)CO)C(=O)CCN(CCC(=O)N(C)C[C@H](O)[C@@H](O)[C@H](O)[C@H](O)CO)C(=O)CCCCc1cc(Cl)c(CNC2(c3cnccc3-c3ccccc3OC3CC3)CC2)cc1Cl` [Compound I-171, 5-{2,5-dichloro-4-[({1-[4-(2-cyclopropoxyphenyl)pyridin-3-yl]cyclopropyl}amino)methyl]phenyl}-N,N-bis(2-{methyl[(2S,3R,4R,5R)-2,3,4,5,6-pentahydroxyhexyl]carbamoyl}ethyl) pentanamide], the EC50 is 1260 to 10000 nM.

As for `O=C(NCCCCc1cc(Cl)c(CNC2(c3cnccc3-c3ccccc3OC3COC3)CC2)cc1Cl)NC[C@H](O)[C@@H](O)[C@H](O)[C@H](O)CO` [Compound I-174, 1-[4-(2,5-dichloro-4-([(1-{4-[2-(oxetan-3-yloxy)phenyl]pyridin-3-yl}cyclopropyl)amino]methyl)phenyl)butyl]-3-[(2S,3R,4R,5R)-2,3,4,5,6-pentahydroxyhexyl]urea], the EC50 is 126 to 1000 nM.

For the compound `CN(C[C@H](O)[C@@H](O)[C@H](O)[C@H](O)CO)C(=O)NCCCCc1cc(Cl)c(CNC2(c3cnccc3-c3ccccc3OC3COC3)CC2)cc1Cl` [Compound I-175, 1-[4-(2,5-dichloro-4-{[(1-{4-[2-(oxetan-3-yloxy)phenyl]pyridin-3-yl}cyclopropyl)amino]methyl}phenyl)butyl]-3-methyl-3-[(2S,3R,4R,5R)-2,3,4,5,6-pentahydroxyhexyl]urea], the EC50 was 126 to 1000 nM.

As to `CN(C[C@H](O)[C@@H](O)[C@H](O)[C@H](O)CO)C(=O)CCCCc1cc(Cl)c(CNC2(c3cnccc3-c3ccccc3OC3COC3)CC2)cc1Cl` [Compound I-177, 5-(2,5-dichloro-4-{[(1-(4-[2-(oxetan-3-yloxy)phenyl]pyridin-3-yl}cyclopropyl)amino]methyl)phenyl)-N-methyl-N-[(2S,3R,4R,5R)-2,3,4,5,6-pentahydroxyhexyl]pentanamide], the EC50 is below 100 nM.

`O=C(O)CCN(C[C@H](O)[C@@H](O)[C@H](O)[C@H](O)CO)C(=O)CCCCc1cc(Cl)c(CNC2(c3cnccc3-c3ccccc3OC3CC3)CC2)cc1Cl` [Compound I-178, 3-(5-{2,5-dichloro-4-[({1-[4-(2-cyclopropoxyphenyl)pyridin-3-yl]cyclopropyl}amino)methyl]phenyl}-N-[(2S,3R,4R,5R)-2,3,4,5,6-pentahydroxyhexyl]pentanamido)propanoic acid]: the EC50 is 126 to 1000 nM.

Regarding `CN(CCCNC[C@H](O)[C@@H](O)[C@H](O)[C@H](O)C(=O)O)C(=O)CCCCc1cc(Cl)c(COC2(c3cnccc3-c3ccccc3OC3CC3)CC2)cc1Cl` [Compound I-180, (2S,3S,4R,5S)-6-[(3-{5-[2,5-dichloro-4-({1-[4-(2-cyclopropoxyphenyl)pyridin-3-yl]cyclopropoxy}methyl)phenyl]-N-methylpentanamido}propyl)amino]-2,3,4,5-tetrahydroxyhexanoic acid], the EC50 was below 100 nM.

Take `O=C(O)CCCC(=O)N(CCCCc1cc(Cl)c(COC2(c3cnccc3-c3ccccc3OC3CC3)CC2)cc1Cl)C[C@H](O)[C@@H](O)[C@H](O)[C@H](O)CO` [Compound I-182, 4-({4-[2,5-dichloro-4-({1-[4-(2-cyclopropoxyphenyl)pyridin-3-yl]cyclopropoxy}methyl)phenyl]butyl}[(2S,3R,4R,5R)-2,3,4,5,6-pentahydroxyhexyl]carbamoyl)butanoic acid]: the EC50 was below 100 nM.

Turning to `O=C(O)CCN(C[C@H](O)[C@@H](O)[C@H](O)[C@H](O)CO)C(=O)CCCCc1cc(Cl)c(COC2(c3cnccc3-c3ccccc3OC3CC3)CC2)cc1Cl` [Compound I-183, 3-{5-[2,5-dichloro-4-({1-[4-(2-cyclopropoxyphenyl)pyridin-3-yl]cyclopropoxy}methyl)phenyl]-N-[(2S,3R,4R,5R)-2,3,4,5,6-pentahydroxyhexyl]pentanamido}propanoic acid], the EC50 is below 100 nM.
